Measured values reported in US20080057010A1, “METHOD FOR SKIN CARE” (NULIV SCIENCE LTD., priority 2006, published 2008).

Key:
Assay type in all cases: cell-based, human
[1] = system: MMP-1; assay: Quantitative analysis of MMP-1 transcripts in HDF cells (qRT-PCR); details: 0.1 μM, MMP-1 mRNA relative to 0 = 1.00
Description: Relative levels of MMP-1 expression in HDF cells were determined by qRT-PCR. Preparation of total RNA and cDNA were carried out as described in previous sections. qRT-PCR was performed using the Applied Biosystem 7300 system and pre-developed Taqman Gene Expression Assays (Applied Biosystems, Foster City, Calif., USA). The reaction was performed as described in previous sections except that primer mix for human MMP-1 (assay ID HS00233958_m1, Applied Biosystems) and GAPDH (assay ID Hs99999905_m1, Applied Biosystems) were used.
(§1) Results shown in Tables 6A and 6B represent the quantitated data from zymography analysis of MMP-2 protein in HaCaT cells and qRT-PCR for MMP-1 in HDF cells. The concentrations used were 0, 0.01. 0.1, 1 μM (if not indicated otherwise) for pure compounds; and were 0, 1, 10, 40 μg/mL for crude extract (if not indicated otherwise). The cells were treated with the indicated compounds for 24 h before harvested for analysis of Pro-MMP-2 or activated MMP-2 in whole cell extract. Fifty micrograms of the cell extract samples were used for electrophoresis.

[2] = system: HaCaT cells; assay: Proline uptake assay in HaCaT cells; details: 0.1 μM; for Uptake rate (proline): 48 h treatment; for Percentage (%) of control proline uptake: control = 100.00
Description: The proline uptake assay was carried out as described (Biochim Biophys Acta. 1104:283-292, 1992). Briefly, HaCaT cells were seeded into a 24-well plate at a density of 3×10^4 cells/well and cultured for 24 h. The cells were then treated in the absence (solvent control) or presence of various concentrations of astragalosides or crude extracts from Astragalus membranaceus for another 48 h. The treated cells were then washed once with PBS and incubated in amino acid free medium (AAFM) for another 30 min. The treated cells were them replaced with fresh AAFM containing 50 μg/ml of ascorbate and total of 0.5 mM of L-proline containing 1 μCi [^3H] Proline (American Radiolabelled Chemicals Inc, ARC, St. Louis, Mo., USA). At designated time interval, the cells were washed with AAFM containing cold proline and then lysed in 200 μL of 2% SDS. Cell lysates were centrifuged at 15000 g for 15 min. Intracellular proline uptaken by the cells was determined by transferring 10 μL of the cell lysate to filter-bottomed UniFilter plates (Perkim-Elmer) and counted. Protein concentration of the samples were measured using the BCA protein assay kit as described above. Proline accumulated in the cells was calculated and normalized to protein concentration and uptake rate was expressed as nmole of L-proline per minute per milligram of cell protein ([…]).

[3] = system: hyaluronic acid (HA); assay: HA measurement in culture medium of HaCaT cells (HA-ELISA); details: relative to 0 = 1.00
Description: HA measurement was carried out as described (BBRC, 2004, 316: 348-355). Briefly, HaCaT or HDF cells were seeded and incubated in 24-well plates to confluency. Immediately before experiments, cells were washed twice with serum-free medium to completely remove HA accumulated during cell growth. The cells were then cultured with or without different compounds in 0.5 ml serum-free medium for 48 h. At the indicated time, aliquots of medium were removed, centrifuged at 15000 g for 5 min, and supernatants were analyzed for HA using an enzyme-linked immunosorbent assay (ELISA) kit (Echelon Bioscience, Salt Lake, Utah).
Results shown represent the fold of induction of the astragalosides on hyaluronic acid expression in HaCaT cells. The concentrations of astragalosides used were 0, 1, or 10 μM (unless indicated otherwise) for astragaloside pure compounds; were 0, 0.5, 1, 2.5, 5, 10, 40 μg/mL for the butanol fraction (unless indicated otherwise); and were 0, 1, 10, 40 μg/mL for the water insoluble fraction (unless indicated otherwise). The cells were treated with the indicated compounds for 24 h before harvested for analysis of secreted hyaluronic acid in culture medium using HA-ELISA kit.

[4] = system: MMP-2; assay: Zymography of MMP-2 in HaCaT cells; details: relative to 0 = 1.00
Description: The proteolytic activities of MMPs from HaCaT and HDF cells were measured essentially as described elsewhere (Circ Res, 1999; 85:906-911). The cells were seeded for 24 h and then treated with various concentrations of astragalosides for another 48 h. The conditioned culture medium was then centrifuged, 2-fold concentrated, and saved for assay of collagens and MMPs expressed into the culture medium. The cells were then lysed in lysis buffer (1% Triton, 50 mM Tris-Cl, pH 7.4, 180 mM NaCl, 1 mM EDTA). Protein concentration of the samples was measured using the bicinchoninic acid (BCA) protein assay kit as described. Samples of concentrated conditioned medium and cell lysates were mixed with non-reducing electrophoresis loading buffer and subjected to electrophoresis under non-reducing conditions, which was carried out on a 10% SDS-PAGE co-polymerized with 2 mg/mL gelatin or casein (Sigma, St. Louis, Mo. USA). For zymographic analysis of pro-MMP-2 and activated MMP-2, the total 20 μg of culture medium were used for electrophoresis. Following electrophoresis, renaturation of the proteins was achieved by incubating the gels in 25 g/L Triton X-100 at room temperature for 2×10 min. Subsequently the gels were incubated in 50 mM Tris-HCl, pH 7.5 containing 0.2 M NaCl, 0.02% Brij35 and 10 mM CaCl2 at 37° C. for 18 h. After staining the gels with Coomassie Brilliant Blue R-250 and destaining, zones of proteolytic activities became visible as transparent bands in the stained gel. In order to obtain higher sensitivity, the gels were further destained in a solution of 1% Triton x-100 (1 to 2 h). This procedure increased the signal-to-noise ratio, allowing the visualization of faint gelatinase bands at 92, 125 and greater than 200 kDa. Zymograms were read using a Molecular Dynamics (Sunnyvale, Calif., USA) computing laser densitometer with Image Quant software.
as §1

| Compound | MMP-1 Q-PCR [1] | Uptake rate (proline) [2] [pmol/mg/min] | Percentage (%) of control proline uptake [2] [%] | HA in medium (fold of induction) ([3]; 1 μM) | HA in medium (fold of induction) ([3]; 10 μM) | ProMMP-2/MMP2 in medium ([4]; 0.01 μM) | ProMMP-2/MMP2 in medium ([4]; 0.1 μM) | ProMMP-2/MMP2 in medium ([4]; 1 μM) |
| --- | --- | --- | --- | --- | --- | --- | --- | --- |
| CC(=O)O[C@H]1[C@H](O[C@H]2CC[C@]34C[C@]35CC[C@]3(C)[C@@H]([C@@]6(C)CC[C@@H](C(C)(C)O)O6)[C@@H](O)C[C@@]3(C)[C@@H]5C[C@H](O[C@@H]3O[C@H](CO)[C@@H](O)[C@H](O)[C@H]3O)[C@H]4C2(C)C)OC[C@@H](O)[C@@H]1O [AS2, astragaloside II] | 0.25 | 0.9770 ± 0.1119 | 141.52 | 1.98 | 1.31 | 0.89 | 0.89 | 0.67 |
| CC(C)(O)[C@@H]1CC[C@](C)([C@H]2[C@@H](O)C[C@@]3(C)[C@@H]4C[C@H](O)[C@H]5C(C)(C)[C@@H](O[C@@H]6OC[C@@H](O)[C@H](O)[C@H]6O[C@@H]6O[C@H](CO)[C@@H](O)[C@H](O)[C@H]6O)CC[C@@]56C[C@@]46CC[C@]23C)O1 [AS3, astragaloside III] | – | 0.7213 ± 0.0090 | 104.48 | – | – | 0.76 | 0.57 | 0.81 |
| CC(C)(O)[C@@H]1CC[C@](C)([C@H]2[C@@H](O)C[C@@]3(C)[C@@H]4C[C@H](O[C@@H]5O[C@H](CO)[C@@H](O)[C@H](O)[C@H]5O)[C@H]5C(C)(C)[C@@H](O[C@@H]6OC[C@@H](O)[C@H](O)[C@H]6O)CC[C@@]56C[C@@]46CC[C@]23C)O1 [AS4, astragaloside IV] | – | 0.7628 ± 0.1015 | 110.50 | 2.27 | 1.31 | – | – | – |
| CC(C)(O)[C@@H]1CC[C@](C)([C@H]2[C@@H](O)C[C@@]3(C)[C@@H]4C[C@H](O[C@@H]5O[C@H](CO)[C@@H](O)[C@H](O)[C@H]5O)[C@H]5C(C)(C)[C@@H](O[C@@H]6OC[C@@H](O)[C@H](O)[C@H]6O[C@@H]6O[C@H](CO)[C@@H](O)[C@H](O)[C@H]6O)CC[C@@]56C[C@@]46CC[C@]23C)O1 [AS6, astragaloside VI] | – | – | – | 1.13 | 1.38 | 0.89 | 0.67 | 0.74 |
| CC(=O)O[C@H]1[C@H](O[C@H]2CC[C@]34C[C@]35CC[C@]3(C)[C@@H]([C@@]6(C)CC[C@@H](C(C)(C)O)O6)[C@@H](O)C[C@@]3(C)[C@@H]5C[C@H](O[C@@H]3O[C@H](CO)[C@@H](O)[C@H](O)[C@H]3O)[C@H]4C2(C)C)OC[C@@H](OC(C)=O)[C@@H]1O [isoAS1, isoastragaloside I] | 0.6 | – | – | – | – | – | – | – |
| CC(=O)O[C@@H]1[C@@H](O)[C@H](O[C@H]2CC[C@]34C[C@]35CC[C@]3(C)[C@@H]([C@@]6(C)CC[C@@H](C(C)(C)O)O6)[C@@H](O)C[C@@]3(C)[C@@H]5C[C@H](O[C@@H]3O[C@H](CO)[C@@H](O)[C@H](O)[C@H]3O)[C@H]4C2(C)C)OC[C@H]1O [isoAS2, isoastragaloside II] | 0.71 | – | – | – | – | – | – | – |
| astragaloside I [AS1] | 0.75 | 0.8627 ± 0.0741 | 124.97 | 1.45 | 1.36 | 0.57 | 0.57 | 0.86 |
